# Test results published in patent US20110123530A1, “COMPOSITIONS AND METHODS FOR TREATING AND DIAGNOSING ASTHMA” (priority 2008, published 2011).
# Legend:
# serum YKL-40 = test: Serum YKL-40 immunoassay; assay type: in vivo, human; details: asthmatics on inhaled corticosteroids (N = 51) vs No ICS (N = 49)
# Text: To determine whether elevated levels of soluble periostin and CEA proteins were detectable in peripheral blood, we examined periostin and CEA in sera from 100 asthmatics and 48 healthy controls using immunoassays. In addition, we measured IgE and YKL-40, a serum marker previously described to be elevated in some asthmatics, in these same sera. […] However, in all cases, there was substantial overlap in serum levels of each biomarker between groups. As shown in Example 8, inhaled corticosteroid (ICS) treatment reduces the bronchial epithelial expression of periostin in asthmatics that have elevated periostin at baseline (see also [8]). Of the 100 asthmatics whose serum we examined, 51 were taking inhaled corticosteroids (ICS) and 49 were not. […] Nevertheless, asthmatics on ICS had higher median serum levels of IgE, periostin, and CEA than healthy controls (Table 13). As shown in FIG. 4 and Table 10, 21/23 asthmatics positive for the bronchial epithelial IL-13 signature (“IL-13 high”) had serum IgE levels greater than 100 IU/ml, although a proportion of “IL-13 low” asthmatics also had elevated IgE. […] As airway expression levels of periostin and CEACAM5 were highly correlated in “IL-13 high” asthmatics, we examined the correlation between serum periostin and CEA across all asthmatics (FIG. 13L).
# serum periostin = test: Serum periostin electrochemiluminescent assay (ECLA); assay type: in vivo, human; details: asthmatics on inhaled corticosteroids (N = 51) vs No ICS (N = 49)
# Procedure: Serum IgE was measured by UCSF clinical laboratories or by ELISA using a human serum IgE ELISA kit according to manufacturer's instructions (Bethyl Laboratories). Serum CEA was measured using a human serum CEA ELISA kit according to manufacturer's instructions (Alpco Diagnostics). We developed an electrochemiluminescent assay (ECLA) to measure serum periostin using anti-periostin antibodies (R&D systems). Briefly, monoclonal anti-periostin was coated onto plates at 1.5 micrograms/ml in sodium carbonate buffer, pH 9.6 overnight at 4° C. Plates were blocked in assay buffer (1×PBS pH 7.4, 0.35 M NaCl, 0.5% BSA, 0.05% Tween 20, 0.25% CHAPS, 5 mM EDTA, 15PPM Proclin)+3% BSA for 2 hours at room temperature, then washed 4× with TBST (Tris-buffered saline+0.1% Tween-20). Serum was diluted 1:5 in assay buffer and incubated with agitation at room temperature for 2 h, then washed 4× with TBST. Recombinant periostin (R&D Systems) was used to establish a standard range. […] Reading buffer (Meso Scale Devices) was added and electrochemiluminescence was read (Meso Scale Devices). […] In addition, we measured IgE and YKL-40, a serum marker previously described to be elevated in some asthmatics, in these same sera. […]
compound,measurement,setting,value
"CCC(=O)O[C@]1(C(=O)SCF)[C@H](C)C[C@H]2[C@@H]3C[C@H](F)C4=CC(=O)C=C[C@]4(C)[C@@]3(F)[C@@H](O)C[C@@]21C [fluticasone, fluticasone propionate]","YKL-49, level of serum biomarker, median (range)",serum YKL-40,72 (24-494) ng/ml
same,"Periostin, level of serum biomarker, median (range)",serum periostin,48 (0-117) ng/ml
